# Structures can show the parent of a compound that is named as a salt.
# What was measured:
# [1] = target: T1, SrfN (Salmonella enterica, UniProt Q7CR88); test: 2-D 1H-15N HSQC NMR titration, chemical shift perturbation; assay type: binding; conditions: 0.5 mM SrfN monomer, oxyanion site, weak
# T1 construct: gene STM0082; full-length synthetic gene in pGS-21a, C-terminal 6xHis tag kept, signal peptide (1-21) cleaved in E. coli, mature residues 22-96; 15N or 13C,15N labelled
# [2] = target: T1, SrfN; test: as above; assay type: binding
# [3] = target: the molecule itself; test: SEC-MALS
molecule,measurement,setting,value
O=S(=O)(O)O [sodium sulfate],"2-D 1H-15N HSQC NMR titration, chemical shift perturbation","[1]; neutral pH, 100-200 mM Na2SO4 (400-800:1 to dimer)",a region on the surface which interacts only weakly with sulfate ion at neutral pH
"O=C(O)C1=C[C@H](O)[C@@H](OS(=O)(=O)O)[C@H](O[C@H]2[C@H](O)[C@@H](NS(=O)(=O)O)C(O)O[C@@H]2COS(=O)(=O)O)O1 (stereo partly drawn) [heparin disaccharide, α-ΔUA-2S-[1→4]-GlcNS-6S]","2-D 1H-15N HSQC NMR titration, chemical shift perturbation",[1]; 5 mM disaccharide (20:1 to dimer),The interaction with heparin disaccharide appears to be somewhat weaker
O=S(=O)(O)OC[C@H]1O[C@@](COS(=O)(=O)O)(O[C@H]2O[C@H](COS(=O)(=O)O)[C@@H](OS(=O)(=O)O)[C@H](OS(=O)(=O)O)[C@H]2OS(=O)(=O)O)[C@@H](OS(=O)(=O)O)[C@@H]1OS(=O)(=O)O [sucrose octasulfate],Kd,[2],< 500 µM
"SrfN (STM0082) of Salmonella enterica serovar Typhimurium LT2, processed form lacking the 21 N-termi (natural protein, uniform 15N or 13C,15N isotope labelling in the NMR samples, also called StR109; SrfN dimer) AEQVSKQEISHFKLVKVGTINVSQSGGQISSPSDLREKLSELADAKGGKYYHIIAAREHGPNFEAVAEVYNDATK",stoichiometry N,[3],2

# Source: paper PMC4092069, “Structural and Functional Characterization of DUF1471 Domains of Salmonella Proteins SrfN, YdgH/SssB, and YahO” (PLoS ONE, 2014)
